The nature of this series: gradient 5% acetonitrile 3 min, to 50% in 2 min, to 85% in 15 min, held 3 min, 100 µL/min. The settings on record: column: Zorbax Extend-C18 2.1 x 50 mm; eluents: water / acetonitrile, 0.1% formic acid. A digest of the protocol:
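Values are retention times taken from adduct peaks that software picked and an analyst inspected. The pure standards were run as mixtures of ~100 molecules on HPLC linked to a quadrupole time-of-flight mass spectrometer, in positive and negative ionization mode. A Zorbax Extend-C18 column (2.1 × 50 mm, 1.8 μm) was used at 100 μL/min with water and acetonitrile, each including 0.1% formic acid.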
The molecule `CCn1cc(-c2nc(-c3ccc(C)cc3)no2)c(=O)c2cc(F)c(N3CCOCC3)cc21` had an RP-LC retention time of 961 s.
`Cc1ccc(C)c(CN2CCn3c(nn(C)c3=O)C2)c1` had an RP-LC retention time of 747 s.
`Cc1ccc(NC(=O)N2CCC(C(C)C(=O)Nc3ccc(C)c(C)c3)CC2)cc1` (stereo not given) came in with an RP-LC retention time of 932 s.
To `COc1ccc(CSc2nc3ccccc3[nH]2)cc1` belongs 625 s.
On to `Cc1ccc(NC(=O)Cn2c(-c3cnccn3)nc(C)c(C)c2=O)cc1C`, for which the RP-LC retention time is 774 s.
To `COc1ccc(NC(=O)CSc2nccc(N3CCN(c4cc(C)ccc4C)CC3)n2)cc1OC` belongs 774 s; to `Cc1ccc(CNC(=O)C2(C)CN(S(C)(=O)=O)CC(=O)N2c2ccc(Cl)cc2C)cc1` (stereo not given), 919 s; to `CCn1nccc1C(=O)N1CCC(Nc2ncnc3c2CCC3)CC1`, 557 s.
The molecule `O=C(COc1ccc(F)cc1)Nc1cnc(N2CCCCC2)nc1` registered an RP-LC retention time of 931 s.
Turning to `COc1ccc(CNC(=O)N2C[C@@H]3CN(S(=O)(=O)c4cccc(F)c4)C[C@H](C2)O3)cc1`, the RP-LC retention time came out at 771 s.
To `COc1ccc(CC(=O)N2CCN(c3ccc(-c4nc(C)cs4)cn3)CC2)cc1OC` belongs 788 s; to `COc1ccc(Nc2nc(-c3nnn(-c4ccc(Br)cc4F)c3C)ns2)cc1`, 1080 s; to `COc1cccc(C(=O)Nc2c(-c3ccc(F)cc3)nc3ccccn23)c1OC`, 667 s.
The molecule `Cc1cccc(NC(=O)Cn2cnc3c(sc4nc(-c5ccccc5)ccc43)c2=O)c1` showed an RP-LC retention time of 1040 s.
Take `Cc1ccc(-c2nc(C)c3c(n2)N(Cc2ccccn2)C(=O)CC3)cc1`: the RP-LC retention time was determined as 771 s.
In turn, `COCCCNC(=O)C(C)n1c(=O)c(C(F)(F)F)nc2ccccc21` (stereo not given) came in with an RP-LC retention time of 854 s.
`CC(C)(C)c1ccccc1OCC(=O)Nc1nc(-c2ccccc2)cs1` showed an RP-LC retention time of 1320 s.
Molecule `Cc1ccc(-c2csc(Nc3ccc(Br)cn3)n2)c(C)c1` came in with an RP-LC retention time of 1330 s.
For `Cc1nc2cc(N3CCC(C(=O)NCCC4=CCCCC4)CC3)cnc2nc1C`, the RP-LC retention time was found to be 767 s.
In turn, `Cc1oc(C2CCN(S(=O)(=O)c3ccc(C#N)cc3)CC2)nc1C(=O)N1CCCC1` gave an RP-LC retention time of 872 s.
Regarding `FC1(c2nc(Cc3ccccc3)no2)CCN(Cc2ccoc2)CC1`, the RP-LC retention time is 693 s.
As to `CCOC(=O)c1noc2ncnc(N3CCN(c4ccccc4F)CC3)c12`, the RP-LC retention time was 1070 s.
`CCOc1ccc(S(=O)(=O)N2CCC(c3noc(-c4cccc(F)c4)n3)CC2)cc1` had an RP-LC retention time of 1190 s.
To `COC(=O)c1ccccc1NC(=O)NCc1ccccc1` belongs 855 s; to `CCc1nc(-c2cc(S(=O)(=O)NCC(=O)N3CCCCC3)c(C)s2)no1`, 891 s; to `CC1CCCN(C(=O)C2CCN(S(=O)(=O)c3ccc4c(c3)CCCC(=O)N4)CC2)C1` (stereo not given), 731 s.
`CCOC(=O)Cn1c(C2CC(=O)N(c3ccccc3)C2)nc2ccccc21` (stereo not given) yielded an RP-LC retention time of 770 s.
As to `Cc1cccc2c(=O)n(C3CCN(S(=O)(=O)c4ccc(C(C)C)cc4)CC3)cnc12`, the RP-LC retention time was found to be 1120 s.
For `O=C([C@@H]1C[C@H](F)CN1C(=O)Nc1ccc(Cl)cc1)N1CCCCC1` the value was 732 s; for `Cc1ccccc1Oc1nccnc1N1CCCC(C(=O)NC2CCCCCC2)C1` (stereo not given), 1120 s; for `CCCN(CC1CCOC1)C(=O)Nc1ccc(C)c(F)c1` (stereo not given), 857 s.
Molecule `O=C(NCCOc1cccc(C(F)(F)F)c1)c1ccc([N+](=O)[O-])cc1` gave an RP-LC retention time of 913 s.
As for `CC(=O)Nc1ccc(NC(=O)C2CCCN(c3ccc(=O)n(-c4ccc(C)c(Cl)c4)n3)C2)cc1` (stereo not given), the RP-LC retention time is 768 s.
Molecule `CCCn1cc(C(=O)NCc2cccc(C)c2)c(S(=O)(=O)N2CCC(C)CC2)n1` yielded an RP-LC retention time of 1130 s.
`CNC(=O)[C@@H]1CN(C(=O)CCc2c(C)noc2C)C[C@H]1c1n[nH]c(C)n1` had an RP-LC retention time of 568 s.
Turning to `Cc1ccc(Nc2c(-c3ccc(N4CCOCC4)cc3)nc3c(C)cccn23)cc1`, the RP-LC retention time came to 739 s.
For `CC(NC(=O)COc1ccc(NC(=O)C2CC2)cn1)c1ccccc1` (stereo not given) the value was 744 s; for `CCCN1CCN(C(=O)C(C)C2CCN(S(=O)(=O)c3ccc(Br)s3)CC2)CC1` (stereo not given), 689 s; for `CSc1ccc(-c2nc3nc(C)cc(C)n3c2Nc2ccc3c(c2)OCCO3)cc1`, 724 s.
Molecule `CCOC(=O)C1CCN(C(=O)C2CCN(S(=O)(=O)c3ccc(OCC)cc3)CC2)CC1` gave an RP-LC retention time of 878 s.
Turning to `Cc1nn2c(CNS(=O)(=O)c3c(C)noc3C)c(C)nc2s1`, the RP-LC retention time worked out at 640 s.
To `O=C(Nc1nc(-c2ccccc2)cs1)C(=O)c1c[nH]c2ccccc12` belongs 1070 s.
Take `CCCn1cc(CCNS(=O)(=O)c2ccc(C)c(C)c2)c2cccnc21`: the RP-LC retention time worked out at 923 s.
Regarding `COc1ccc(-c2nnc(COc3ccc(NC(=O)C(NC(=O)c4ccco4)C(C)C)cc3)o2)cc1` (stereo not given), the RP-LC retention time came out at 854 s.
Take `COc1cccc(NC(=O)N2CCN(Cc3nc4cc(Cl)ccc4o3)CC2)c1`: the RP-LC retention time was 731 s.
For the molecule `O=C(O)c1cncc(Br)c1`, the RP-LC retention time is 701 s.
For `Cc1cc(C(=O)N2CCC(c3noc(-c4cnccn4)n3)C2)nn1C` (stereo not given) the value was 641 s; for `Cc1ccc(Cn2c(=O)c(N3CCN(C(=O)C4CCCO4)CC3)nc3cccnc32)cc1` (stereo not given), 998 s.
Regarding `CC(C)NC(=O)c1cc(-c2ccc(F)cc2)cn1C`, the RP-LC retention time was found to be 926 s.
As to `CCc1nc2cc(-c3noc(CNC(=O)Cc4ccccc4)n3)ccc2o1`, the RP-LC retention time is 819 s.
Take `COc1ccc(-c2nnc(-c3cc(S(=O)(=O)N4CCN(C)CC4)ccc3Cl)o2)cc1`: the RP-LC retention time was 682 s.
As for `CCOc1ccccc1-n1ccn(Cc2nc(-c3ccc(OC)cc3)no2)c(=O)c1=O`, the RP-LC retention time was 846 s.
In turn, `CC(C)c1noc(-c2cc(=O)n(CC(=O)NCc3ccc(F)cc3)c3ccccc23)n1` displayed an RP-LC retention time of 951 s.
To `Cc1cc(C)n(Cc2nc(-c3ccc(NC(=O)c4ccc5c(c4)OCO5)cc3)oc2C)n1` belongs 888 s; to `COc1ccccc1OCC(=O)NCCN1CCN(c2ccccc2OC)CC1`, 574 s; to `CCCCSc1ncnc2[nH]ncc12`, 919 s.
Regarding `O=C1CN(Cc2ccc(F)cc2Cl)CC2(CCCCC2)N1CC1CC1`, the RP-LC retention time was found to be 1330 s.
For `CCOC(=O)c1ccc(N2C=C(C(=O)N3CCCC3)S(=O)(=O)c3ccccc32)cc1` the value was 813 s; for `CCOc1ccccc1NC(=O)N1CCC(C)(C(=O)NCc2ccc(F)cc2)CC1`, 906 s.
Molecule `COc1cc(OC)c(NC(=O)Cc2cn3cc(F)ccc3n2)cc1Cl` displayed an RP-LC retention time of 637 s.
Consider `CCCS(=O)(=O)N1CCCC(Cn2c(C3CC3)nc3cccnc32)C1` (stereo not given), for which the RP-LC retention time was 658 s.
As for `CN(C)C(=O)c1cn(C2CN(C(=O)c3ccc(C#N)cc3)C2)nn1`, the RP-LC retention time stood at 624 s.
Take `CCOC(=O)c1c(C)c(S(=O)(=O)N2CCN(c3ccccn3)CC2)c(C)n1C`: the RP-LC retention time turned out to be 690 s.
The molecule `O=C(OC1C[C@@H]2CC3C[C@@H](C1)N2CC3=O)c1c[nH]c2ccccc12` (stereo not given in full) showed an RP-LC retention time of 638 s.
`O=C1NC2(CCN(C(=O)c3cc(F)cc(F)c3)CC2)Nc2cc(Cl)ccc21` showed an RP-LC retention time of 774 s.
In turn, `O=C(Nc1nc(-c2ccc(Cl)cc2)cs1)c1ccc2c(c1)OCO2` gave an RP-LC retention time of 1110 s.
In turn, `Cc1ccc2c(Nc3ccc(Cl)cc3)c(-c3nc(C)no3)cnc2n1` displayed an RP-LC retention time of 785 s.
For `O=C(Nc1cccc(OCc2nnc(-c3ccc(Cl)cc3)o2)c1)C1CCC1` the value was 978 s; for `Cc1cc(-c2nnc(C3CC3)o2)c(C)n1CC(=O)NCc1cc(F)cc(F)c1`, 813 s; for `Cc1ccn2c(Nc3ccc4c(c3)OCO4)c(-c3ccc(O)cc3)nc2c1`, 629 s.
For `O=C(NCc1ccc(Br)cc1)C1CCN(c2ncnc3c2oc2ccccc23)CC1` the value was 982 s; for `Cc1sc(C)c(S(=O)(=O)NCc2ccc3c(c2)OCO3)c1-c1cc(C(F)(F)F)on1`, 1120 s.
Take `CCNc1cc(N2CCC(CCC(=O)NCc3ccc(C)cc3)CC2)ncn1`: the RP-LC retention time came out at 676 s.
`O=C(c1ccc(-c2noc(C3CCC3)n2)cc1)N1CCCC1` showed an RP-LC retention time of 879 s.
As for `COc1ccc(NC(=O)Cn2c(N)nc(C)cc2=O)cc1F`, the RP-LC retention time was 593 s.
As to `CCn1c(=O)n(Cc2ccccc2Cl)c(=O)c2cnc(-c3ccc(OC)cc3)nc21`, the RP-LC retention time is 1010 s.
In turn, `COc1cc2ncc(S(=O)(=O)c3ccc(Cl)cc3)c(N3CCN(C)CC3)c2cc1OC` showed an RP-LC retention time of 634 s.
Molecule `O=C(COc1ccc(Cl)cc1)Nc1nc(-c2ccccc2)cs1` came in with an RP-LC retention time of 1100 s.
To `Cn1ncc2c(N3CCSCC3)nc(C(=O)NCCc3cccs3)nc21` belongs 833 s; to `FC(F)(F)c1cnc(N2CCN(c3ccccc3)CC2)c(Cl)c1`, 1390 s.
